Assay results reported in PubChem BioAssay (NCI).
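Tested at 5 concentrations; 48 h exposure; 96-well plates; endpoints linearly interpolated, else capped at highest concentration. Here, GI50 denotes the concentration required for 50% inhibition of growth. TGI marks complete inhibition of growth.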

How the values were obtained:
Assay in all cases: DTP human tumour cell line panel, 48 h
DU-145 prostate = test system: DU-145 prostate
SK-MEL-2 melanoma = test system: SK-MEL-2 melanoma
UO-31 renal = test system: UO-31 renal
MOLT-4 leukemia = test system: MOLT-4 leukemia
NCI-H226 lung = test system: NCI-H226 lung
T-47D breast = test system: T-47D breast
HT29 colon = test system: HT29 colon
NCI-H23 lung = test system: NCI-H23 lung
COLO 205 colon = test system: COLO 205 colon
SF-268 CNS = test system: SF-268 CNS
HOP-92 NSCLC = test system: HOP-92 NSCLC
KM12 colon = test system: KM12 colon
OVCAR-8 ovarian = test system: OVCAR-8 ovarian
EKVX NSCLC = test system: EKVX NSCLC
HL-60(TB) leukemia = test system: HL-60(TB) leukemia
HCC-2998 colon = test system: HCC-2998 colon
SNB-75 CNS = test system: SNB-75 CNS
HOP-62 NSCLC = test system: HOP-62 NSCLC
A498 renal = test system: A498 renal
A549 NSCLC = test system: A549 NSCLC
SF-539 CNS = test system: SF-539 CNS
SNB-19 CNS = test system: SNB-19 CNS
SW-620 colon = test system: SW-620 colon
MALME-3M melanoma = test system: MALME-3M melanoma
MCF7 breast = test system: MCF7 breast
SK-MEL-28 melanoma = test system: SK-MEL-28 melanoma
CAKI-1 renal = test system: CAKI-1 renal
TK-10 renal = test system: TK-10 renal
SK-MEL-5 melanoma = test system: SK-MEL-5 melanoma
RPMI-8226 leukemia = test system: RPMI-8226 leukemia
PC-3 prostate = test system: PC-3 prostate
HS 578T breast = test system: HS 578T breast
NCI-H460 lung = test system: NCI-H460 lung
NCI/ADR-RES ovarian = test system: NCI/ADR-RES ovarian
U251 CNS = test system: U251 CNS
ACHN renal = test system: ACHN renal
LOX IMVI melanoma = test system: LOX IMVI melanoma
SR leukemia = test system: SR leukemia
CCRF-CEM leukemia = test system: CCRF-CEM leukemia
NCI-H522 lung = test system: NCI-H522 lung
786-0 renal = test system: 786-0 renal
M14 melanoma = test system: M14 melanoma
MDA-MB-435 = test system: MDA-MB-435
MDA-MB-231 breast = test system: MDA-MB-231 breast
IGROV1 ovarian = test system: IGROV1 ovarian
SK-OV-3 ovarian = test system: SK-OV-3 ovarian
HCT-116 colon = test system: HCT-116 colon
UACC-257 melanoma = test system: UACC-257 melanoma
OVCAR-3 ovarian = test system: OVCAR-3 ovarian
BT-549 breast = test system: BT-549 breast
OVCAR-5 ovarian = test system: OVCAR-5 ovarian
UACC-62 melanoma = test system: UACC-62 melanoma
SN12C renal = test system: SN12C renal
HCT-15 colon = test system: HCT-15 colon
SF-295 CNS = test system: SF-295 CNS
K-562 leukemia = test system: K-562 leukemia
OVCAR-4 ovarian = test system: OVCAR-4 ovarian

Structure (SMILES): CCN1C(=O)N(CC)C2C1NN=c1s/c(=C\c3cccc(F)c3)c(=O)n12 (stereo not drawn)
- GI50 (DU-145 prostate): 389 nM
- TGI (DU-145 prostate): > 100000 nM
- GI50 (SK-MEL-2 melanoma): 1690 nM
- TGI (SK-MEL-2 melanoma): > 100000 nM
- GI50 (UO-31 renal): 960 nM
- TGI (UO-31 renal): > 100000 nM
- GI50 (MOLT-4 leukemia): 327 nM
- TGI (MOLT-4 leukemia): > 100000 nM
- GI50 (NCI-H226 lung): 240 nM
- TGI (NCI-H226 lung): > 100000 nM
- GI50 (T-47D breast): 17400 nM
- TGI (T-47D breast): > 100000 nM
- GI50 (HT29 colon): 85.9 nM
- TGI (HT29 colon): > 100000 nM
- GI50 (NCI-H23 lung): 522 nM
- TGI (NCI-H23 lung): > 100000 nM
- GI50 (COLO 205 colon): 243 nM
- TGI (COLO 205 colon): 4920 nM
- GI50 (SF-268 CNS): 2610 nM
- TGI (SF-268 CNS): > 100000 nM
- GI50 (HOP-92 NSCLC): 1440 nM
- TGI (HOP-92 NSCLC): > 79800 nM
- GI50 (KM12 colon): 85.6 nM
- TGI (KM12 colon): > 100000 nM
- GI50 (OVCAR-8 ovarian): 345 nM
- TGI (OVCAR-8 ovarian): > 100000 nM
- GI50 (EKVX NSCLC): 657 nM
- TGI (EKVX NSCLC): > 100000 nM
- GI50 (HL-60(TB) leukemia): 58.2 nM
- TGI (HL-60(TB) leukemia): 460 nM
- GI50 (HCC-2998 colon): 223 nM
- TGI (HCC-2998 colon): > 65600 nM
- GI50 (SNB-75 CNS): 74.5 nM
- TGI (SNB-75 CNS): > 100000 nM
- GI50 (HOP-62 NSCLC): 598 nM
- TGI (HOP-62 NSCLC): > 100000 nM
- GI50 (A498 renal): < 18.4 nM
- TGI (A498 renal): 184 nM
- GI50 (A549 NSCLC): 282 nM
- TGI (A549 NSCLC): > 100000 nM
- GI50 (SF-539 CNS): 80.4 nM
- TGI (SF-539 CNS): 1050 nM
- GI50 (SNB-19 CNS): 263 nM
- TGI (SNB-19 CNS): > 100000 nM
- GI50 (SW-620 colon): 84.5 nM
- TGI (SW-620 colon): > 100000 nM
- GI50 (MALME-3M melanoma): 429 nM
- TGI (MALME-3M melanoma): > 100000 nM
- GI50 (MCF7 breast): 39.2 nM
- TGI (MCF7 breast): > 100000 nM
- GI50 (SK-MEL-28 melanoma): 13100 nM
- TGI (SK-MEL-28 melanoma): > 100000 nM
- GI50 (CAKI-1 renal): 71.1 nM
- TGI (CAKI-1 renal): > 100000 nM
- GI50 (TK-10 renal): 27200 nM
- TGI (TK-10 renal): > 100000 nM
- GI50 (SK-MEL-5 melanoma): 131 nM
- TGI (SK-MEL-5 melanoma): 2330 nM
- GI50 (RPMI-8226 leukemia): 119 nM
- TGI (RPMI-8226 leukemia): 7780 nM
- GI50 (PC-3 prostate): 185 nM
- TGI (PC-3 prostate): > 100000 nM
- GI50 (HS 578T breast): 89.9 nM
- TGI (HS 578T breast): > 100000 nM
- GI50 (NCI-H460 lung): 217 nM
- TGI (NCI-H460 lung): 15100 nM
- GI50 (NCI/ADR-RES ovarian): 59 nM
- TGI (NCI/ADR-RES ovarian): > 100000 nM
- GI50 (U251 CNS): 210 nM
- TGI (U251 CNS): > 100000 nM
- GI50 (ACHN renal): 196 nM
- TGI (ACHN renal): > 100000 nM
- GI50 (LOX IMVI melanoma): 110 nM
- TGI (LOX IMVI melanoma): > 100000 nM
- GI50 (SR leukemia): 44 nM
- TGI (SR leukemia): > 100000 nM
- GI50 (CCRF-CEM leukemia): 181 nM
- TGI (CCRF-CEM leukemia): > 100000 nM
- GI50 (NCI-H522 lung): 228 nM
- TGI (NCI-H522 lung): 33200 nM
- GI50 (786-0 renal): 657 nM
- TGI (786-0 renal): > 100000 nM
- GI50 (M14 melanoma): 72.7 nM
- TGI (M14 melanoma): > 100000 nM
- GI50 (MDA-MB-435): 27.1 nM
- TGI (MDA-MB-435): 83.3 nM
- GI50 (MDA-MB-231 breast): 405 nM
- TGI (MDA-MB-231 breast): > 100000 nM
- GI50 (IGROV1 ovarian): 233 nM
- TGI (IGROV1 ovarian): > 100000 nM
- GI50 (SK-OV-3 ovarian): 2590 nM
- TGI (SK-OV-3 ovarian): > 100000 nM
- GI50 (HCT-116 colon): 131 nM
- TGI (HCT-116 colon): > 100000 nM
- GI50 (UACC-257 melanoma): 30000 nM
- TGI (UACC-257 melanoma): > 100000 nM
- GI50 (OVCAR-3 ovarian): 170 nM
- TGI (OVCAR-3 ovarian): > 100000 nM
- GI50 (BT-549 breast): 209 nM
- GI50 (OVCAR-5 ovarian): 556 nM
- TGI (OVCAR-5 ovarian): > 100000 nM
- GI50 (UACC-62 melanoma): 53.9 nM
- TGI (UACC-62 melanoma): > 100000 nM
- GI50 (SN12C renal): 380 nM
- TGI (SN12C renal): > 100000 nM
- GI50 (HCT-15 colon): 54.9 nM
- TGI (HCT-15 colon): > 100000 nM
- GI50 (SF-295 CNS): 224 nM
- TGI (SF-295 CNS): > 100000 nM
- GI50 (K-562 leukemia): 41 nM
- TGI (K-562 leukemia): > 100000 nM
- GI50 (OVCAR-4 ovarian): 5370 nM
- TGI (OVCAR-4 ovarian): > 100000 nM
